Data from PMC10384408, “Anticancer Tungstenocenes with a Diverse Set of (O,O–), (O,S–) and (O,N–) Chelates—A Detailed Biological Study Using an Improved Evaluation via 3D Spheroid Models” (Pharmaceutics, 2023).
Like-named read-outs stand apart in the source and are kept apart here.

What was measured:
[1] = system: SW480 (colon carcinoma) cells; settings: MTT assay, 96 h; cited from earlier work
[2] = system: CH1/PA-1 (ovarian teratocarcinoma) cells; settings: MTT assay, 96 h; cited from earlier work
[3] = system: A549 (non-small cell lung carcinoma) cells; settings: MTT assay, 96 h; cited from earlier work
MCF-7 cells [4] = assay: Annexin V-FITC/PI apoptosis assay, MCF-7; settings: MCF-7, 24 h, 200 µM
[5] = system: A549 (non-small cell lung carcinoma) cells; assay: MTT cytotoxicity assay, A549 monolayer; type: cell-based, human
Procedure: (§1) CH1/PA-1 (ovarian teratocarcinoma), SW480 (colon carcinoma) and A549 (non-small cell lung cancer) cells were maintained as described in the reference. IMR-90 human fetal lung fibroblasts (from the European Collection of Authenticated Cell Cultures, Porton Down, Salisbury, UK) were cultured in Stable Cell^TM DMEM/F12 supplemented with 0.01 mg/mL human recombinant insulin (both purchased from Sigma-Aldrich) and 10% fetal bovine serum (FBS, BioWest, Nuaillé, France). Human colon carcinoma cell lines HCT116 and HT29 (both kindly provided by the Institute of Cancer Research, Department of Medicine I, Medical University of Vienna, Austria) were cultured in McCoy’s 5a medium supplemented with 4 mM L-glutamine (both purchased from Sigma-Aldrich) and 10% FBS. MCF-7 human breast adenocarcinoma cells (kindly provided by M. Ogris, Department of Pharmaceutical Sciences, University of Vienna, Austria) were maintained in DMEM (high glucose) supplemented with 4 mM L-glutamine, 0.1 mg/mL human insulin (all purchased from Sigma-Aldrich) and 10% FBS. All cell lines were grown as monolayers in 75 cm^2 culture flasks (CytoOne, Starlab, Hamburg, Germany) at 37 °C in a humidified atmosphere containing 5% CO2.
(§2) Exponentially growing cells were plated into 96-well microculture plates (CytoOne, tissue culture treated, Starlab, Hamburg, Germany) in densities of 1 × 10^3 CH1/PA-1, 2 × 10^3 SW480, 3 × 10^3 A549 and 7 × 10^3 IMR-90 cells per well (each in 100 µL). After a 24 h preincubation, drugs were added in serial dilution to give a final volume of 200 µL/well and exposed for 96 h. At the end of the exposure, the drug solutions were replaced by 100 µL RPMI 1640/MTT mixture (7:1 ratio). MTT (3-(4,5-dimethylthiazol-2-yl)-2,5-diphenyl-2H-tetrazolium bromide), (Acros Organics, Geel, Belgium) solution was prepared in phosphate-buffered saline (5 mg/mL) and mixed with RPMI1640 medium supplemented with 4 mM L-glutamine (both from Sigma-Aldrich) and 10% FBS. After 4 h incubation, the formazan crystals were solubilized in 150 µL of DMSO per well. Absorbance was measured at 550 nm (and at 690 nm as a reference) with a microplate reader (ELx808, BioTek, Winoosky, VT, USA) and Gen5^TM 3.08 software (BioTek). The 50% inhibitory concentrations (IC50) relative to untreated controls were interpolated from concentration-effect curves. At least three biologically and technically independent experiments were performed.

HT29 cells [6] = assay: Annexin V-FITC/PI apoptosis assay, HT29; settings: HT29, 24 h, 200 µM
HCT116 cells [7] = assay: Annexin V-FITC/PI apoptosis assay, HCT116; type: cell-based, human; settings: HCT116, 24 h, 200 µM
[8] = system: SW480 (colon carcinoma) cells; assay: MTT cytotoxicity assay, SW480 monolayer; type: cell-based, human
Procedure: as §1, §2

HT29 cells [9] = assay: Resazurin assay, HT29 2D monolayer; type: cell-based, human; settings: 96 h
Procedure: as §1
(§3) For the resazurin assay in monolayer cultures, cells were seeded into 96-well microculture plates (CytoOne, tissue culture treated, Starlab, Hamburg, Germany) in densities of 2 × 10^3 HCT116, 2 × 10^3 HT29 and 4 × 10^3 MCF-7 cells per well (each in 100 µL). For tests in 3D cultures, spheroids were grown as described above. After 24 h (for monolayers) or 4 days (for spheroids) the test compounds in the appropriate medium were added in serial dilution to the plates to obtain a total volume of 200 µL/well. Wells without cells, containing medium and resazurin (Alfa Aesar, Thermo Fisher, Kandel, Germany) solution were used as blanks. After 96 h exposure 20 µL of the resazurin solution (440 µM) were added to each well, followed by a 4 h (2D) or 12 h (3D) incubation period. Resorufin fluorescence was quantified at 530 nm (and a reference wavelength of 620 nm) by using a microplate reader (Synergy HT, BioTek) with Gen5^TM 3.10 software (BioTek).

[10] = system: HT29 multicellular tumor spheroids; assay: Resazurin assay, HT29 3D spheroids; type: cell-based, human; settings: 96 h, spheroids
Procedure: as §1
(§4) For growing multicellular tumor spheroids, 400 HCT116, 400 HT29 or 800 MCF-7 cells per well were plated into round-bottom ultra-low attachment 96-well plates (Corning, Glendale, AZ, USA) in the media described above and incubated at 37 °C for 96 h. Spheroids were treated with 10 µM of the two most cytotoxic compounds 3 and 4 for another 96 h. The diameters of the spheroids were measured with Cell^F software under a CKX41 Olympus microscope before treatment and in constant daily intervals over the 96 h treatment period. For statistical analysis the t-test with Welsh’s correction was implemented in GraphPad Prism software (Version 6.01).
as §3

MCF-7 cells [11] = assay: Resazurin assay, MCF-7 2D monolayer; type: cell-based, human; settings: 96 h
Procedure: as §1, §3

HCT116 cells [12] = assay: Resazurin assay, HCT116 2D monolayer; type: cell-based, human; settings: 96 h
Procedure: as §1, §3

[13] = system: HCT116, HT29 and MCF-7 cell lines; assay: ROS detection (DCFH-DA assay); type: cell-based, human; settings: 2, 20, 100 and 200 µM, 2 h
Procedure: Reactive oxygen species (ROS) generation was measured by means of the DCFH-DA assay. […] On the following day, cells were washed with 200 µL Hanks’ balanced salt solution (HBSS, Sigma-Aldrich, containing 1% FBS) and stained with 100 µL of 25 µM DCFH-DA (2′,7′-dichlorofluorescein diacetate, Sigma-Aldrich) in HBSS (containing 1% FBS) for 45 min at 37 °C in the dark. After the incubation period, cells were washed with 200 µL HBSS (1% FBS) and loaded with compounds at concentrations of 2 µM, 20 µM, 100 µM and 200 µM in 200 µL phenol-red-free MEM (1% FBS) in triplicates. As positive controls, cells were treated with 200 µM and 400 µM tert-butylhydroperoxide (Sigma-Aldrich). Wells containing only phenol-red-free medium with 1% FBS were used as blanks, and non-drug treated, cell containing wells as reference values. Fluorescence (excitation: 485/20 nm, emission: 516/20 nm) was recorded in 10 min intervals with the Synergy HT reader (BioTek) over 2 h.

[14] = system: HCT116 multicellular tumor spheroids; assay: Resazurin assay, HCT116 3D spheroids; type: cell-based, human; settings: 96 h, spheroids
Procedure: as §1, §4, §3

[15] = system: MCF-7 multicellular tumor spheroids; assay: Resazurin assay, MCF-7 3D spheroids; type: cell-based, human; settings: 96 h, spheroids
Procedure: as §1, §4, §3

[16] = Solubility in PBS (1% DMSO); type: physicochemical
Procedure: Stock solutions in DMSO of compounds 1–10 were utilized to determine the solubility in PBS by adding 1 vol% of the stock solution to a suitable amount of PBS. […] UV/Vis data were recorded on a Perkin Elmer Lambda 650 UV/Vis Spectrophotometer with a Peltier element for temperature control.

[17] = system: CH1/PA-1 (ovarian teratocarcinoma) cells; assay: MTT cytotoxicity assay, CH1/PA-1 monolayer; type: cell-based, human; settings: exposure time 96 h, mean ± SD
Procedure: as §1, §2

[18] = system: IMR-90 human lung fibroblasts; assay: MTT cytotoxicity assay, IMR-90 fibroblasts; type: cell-based; settings: exposure time 96 h, mean ± SD
Procedure: as §1, §2

Cc1occc(=O)c1[O-].F[P-](F)(F)(F)(F)F.[Mo+4].c1cc[cH-]c1.c1cc[cH-]c1 [[Cp2Mo(L1)]PF6]
IC50 [1]: > 200 µM
IC50 [2]: > 200 µM
IC50 [3]: > 200 µM

Cc1occc(=O)c1[O-].[Cl-].[W+4].c1cc[cH-]c1.c1cc[cH-]c1 [Compound 1A, Bis(η^5-cyclopentadienyl)[2-methyl-3-(oxo-κO)-4-(1H)-pyran-4-ato-κO]tungsten(IV) chloride]
early apoptotic cells [%] AV+ / PI- (MCF-7 cells [4]): 1.1 ± 0.6%
late apoptotic cells [%] AV+ / PI+ (MCF-7 cells [4]): 3.2 ± 1.3%
necrotic cells [%] AV- / PI+ (MCF-7 cells [4]): 2.3 ± 0.5%
viable cells [%] AV- / PI- (MCF-7 cells [4]): 94.3 ± 2.3%
∑apoptotic cells [%] (MCF-7 cells [4]; sum of early and late): 4.3%
activity in A549 ([5]; 96 h): no activity was observed
IC50 ([5]; exposure time 96 h, mean ± SD): > 200 µM
early apoptotic cells [%] AV+ / PI- (HT29 cells [6]): 3.5 ± 2.5%
late apoptotic cells [%] AV+ / PI+ (HT29 cells [6]): 4.3 ± 0.9%
necrotic cells [%] AV- / PI+ (HT29 cells [6]): 4.4 ± 4.8%
viable cells [%] AV- / PI- (HT29 cells [6]): 87.8 ± 4.0%
∑apoptotic cells [%] (HT29 cells [6]; sum of early and late): 7.8%
early apoptotic cells [%] AV+ / PI- (HCT116 cells [7]): 5.6 ± 2.1%
late apoptotic cells [%] AV+ / PI+ (HCT116 cells [7]): 16.1 ± 4.6%
necrotic cells [%] AV- / PI+ (HCT116 cells [7]): 3.8 ± 2.1%
viable cells [%] AV- / PI- (HCT116 cells [7]): 74.5 ± 7.0%
∑apoptotic cells [%] (HCT116 cells [7]; sum of early and late): 21.7%
activity in SW480 ([8]; 96 h): no activity was observed
IC50 ([8]; exposure time 96 h, mean ± SD): > 200 µM
IC50 (HT29 cells [9]): > 200 µM
IC50 [10]: > 200 µM
IC50 (MCF-7 cells [11]): > 200 µM
IC50 (HCT116 cells [12]): > 200 µM
intracellular ROS levels [13]: Pronounced elevation of ROS levels
IC50 [14]: > 200 µM
IC50 [15]: > 200 µM
Solubility in PBS (1% DMSO) [16]: 5000 µg/mL
IC50 [17]: 147 ± 18 µM

Cc1occc(=S)c1[O-].F[P-](F)(F)(F)(F)F.[Mo+4].c1cc[cH-]c1.c1cc[cH-]c1 [[Cp2Mo(L2)]PF6]
IC50 [1]: 55 ± 9 µM
IC50 [2]: 29 ± 10 µM
IC50 [3]: 106 ± 15 µM

N.N.[Cl][Pt][Cl] [Cisplatin]
IC50 [1]: 2.3 ± 0.2 µM
IC50 [2]: 0.073 ± 0.001 µM
IC50 [3]: 3.8 ± 1 µM
IC50 [18]: 14 ± 1 µM

[Cl-].[Cl-].[Mo+4].c1cc[cH-]c1.c1cc[cH-]c1 [Cp2MoCl2, Molybdenocene dichloride]
IC50 [1]: > 200 µM
IC50 [2]: > 200 µM
IC50 [3]: > 200 µM
